{"source": "paper PMC7403315", "about": "“Cyclic peptide FXII inhibitor provides safe anticoagulation in a thrombosis model and in artificial lungs” (Nature Communications, 2020)", "type_in_all_cases": "biochemical", "key": {"[1]": {"target": "T1, human β-FXIIa (Homo sapiens, UniProt P00748)", "T1 construct": "human β-FXIIa (Molecular Innovations cat #); purchased Molecular Innovations HFXIIAB; host or cells: human blood", "T1 sequence (P00748 373-615 limits assumed, other chains not shown)": "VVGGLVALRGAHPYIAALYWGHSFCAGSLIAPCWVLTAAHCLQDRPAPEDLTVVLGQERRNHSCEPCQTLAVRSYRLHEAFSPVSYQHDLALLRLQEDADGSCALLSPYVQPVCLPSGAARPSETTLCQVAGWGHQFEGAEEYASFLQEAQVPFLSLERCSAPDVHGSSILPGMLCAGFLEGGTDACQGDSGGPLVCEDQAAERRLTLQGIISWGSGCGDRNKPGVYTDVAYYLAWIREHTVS", "experiment": "FXIIa protease inhibition assay with fluorogenic substrate Boc-Gln-Gly-Arg-AMC", "method": "(§1) In order to test the inhibitory activity of peptides without prior purification, we developed the following method. […] After solid-phase peptide synthesis, cleavage, and ether precipitation, the peptides were chemically cyclized and their Ki values were determined in a FXIIa activity assay using a fluorogenic substrate.\n(§2) Protease inhibition assays\n(§3) The inhibitory activity of peptides was determined by measuring the residual protease activity with a fluorogenic substrate. The assay was performed in buffer containing 10 mM Tris-Cl, pH […]\n(§4) 1% (v/v) DMSO in a volume of 150 µl. FXIIa activity was measured with the fluorogenic substrate Boc-Gln-Gly-Arg-AMC (Bachem) at a final concentration of 50 µM. Mouse α-FXIIa (Molecular Innovations cat # MFXIIA) and human β-FXIIa (Molecular Innovations cat # HFXIIAB) were used at final concentrations of 0.4 nM. The reaction was pipetted as follows: 50 µl of bicyclic peptide in assay buffer were added to 50 µl of FXIIa in assay buffer and incubated for 10 minutes at 25°C before 50 µl of 150 µM fluorogenic substrate in assay buffer were added to measure the residual protease activity with an Infinite M200Pro fluorescence plate reader (excitation at 368 nm, emission at 467 nm; Tecan) for a period of 30 minutes with a read every minute at 25°C. The Tecan software i-control (version 1.1) was used for data analysis. Stock solutions of 1 mM bicyclic peptide were prepared by either dissolving the unpurified cyclization reaction with water or by dissolving purified and lyophilized peptide in water. The bicyclic peptides were serially diluted two-fold using assay buffer. Sigmoidal curves were fitted to the data using the following dose response equation (1), wherein x = peptide concentration, y = % protease activity, and p = Hill slope. IC50 values were derived from the fitted curve.\n(§5) The inhibition constants (Ki) were calculated according to the equation of Cheng and Prusoff, Ki = IC50/(1+([S]0/Km), wherein IC50 is the functional strength of the inhibitor, [S]0 is the total substrate concentration, and Km is the Michaelis-Menten constant. […]\n(§6) the substrate Boc-Gln-Gly-Arg-AMC. […]"}, "[2]": {"target": "T2, Mouse α-FXIIa (Mus musculus, UniProt Q80YC5)", "T2 construct": "Mouse α-FXIIa; purchased Molecular Innovations MFXIIA", "T2 sequence (Q80YC5 355-597 limits assumed)": "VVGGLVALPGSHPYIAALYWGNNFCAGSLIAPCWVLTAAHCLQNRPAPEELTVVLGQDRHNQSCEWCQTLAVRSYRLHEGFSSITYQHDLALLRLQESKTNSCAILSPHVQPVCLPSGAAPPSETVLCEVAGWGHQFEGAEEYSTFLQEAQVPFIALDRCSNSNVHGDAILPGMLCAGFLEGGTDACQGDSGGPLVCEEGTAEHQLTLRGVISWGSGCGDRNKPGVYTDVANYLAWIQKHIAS", "T2 sequence (Q80YC5 20-354 limits assumed)": "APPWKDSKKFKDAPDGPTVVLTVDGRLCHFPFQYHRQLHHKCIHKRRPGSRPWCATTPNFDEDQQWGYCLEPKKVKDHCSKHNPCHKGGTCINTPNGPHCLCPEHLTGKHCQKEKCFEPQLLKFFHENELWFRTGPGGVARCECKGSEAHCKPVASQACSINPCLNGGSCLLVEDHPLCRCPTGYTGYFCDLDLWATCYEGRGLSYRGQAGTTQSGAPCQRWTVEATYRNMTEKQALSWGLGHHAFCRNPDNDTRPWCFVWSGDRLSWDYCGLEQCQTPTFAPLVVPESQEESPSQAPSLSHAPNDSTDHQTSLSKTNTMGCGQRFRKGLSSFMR", "experiment": "FXIIa protease inhibition assay with fluorogenic substrate Boc-Gln-Gly-Arg-AMC", "method": "as §1, §2, §3, §4, §5, §6"}, "[3]": {"target": "T3, Recombinant mouse FXII (Mus musculus, UniProt Q80YC5)", "T3 sequence (Q80YC5 355-597 limits assumed)": "T2 sequence (Q80YC5 355-597 limits assumed)", "T3 sequence (Q80YC5 20-354 limits assumed)": "T2 sequence (Q80YC5 20-354 limits assumed)", "experiment": "Inhibition of recombinant FXIIa (rFXIIa)", "details": "Recombinant mouse FXII, individual plates, read-out: Residual activity (%)"}, "[4]": {"details": "crude, coumarin labeled peptides, individual plates"}}, "note": "Several values for one entry are separate records, joined by “and”; a condition that tells them apart may be missing. Equal entries are not always repeated."}
{"smiles": "CC(C)C[C@@H]1NC(=O)[C@H](CCC(N)=O)NC(=O)[C@H](CCCNC(=N)N)NC(=O)[C@@H]2CSCCC(=O)N3CN(CN(C3)C(=O)CCSC[C@H](NC(=O)[C@@H](N)CCCNC(=N)N)C(=O)N[C@@H](Cc3ccccc3)C(=O)N[C@@H](CCCNC(=N)N)C(=O)N[C@@H](CC(C)C)C(=O)N3CCC[C@H]3C(=O)N2)C(=O)CCSC[C@@H](C(=O)N[C@@H](CCCNC(=N)N)C(N)=O)NC(=O)[C@H](CCCNC(=N)N)NC1=O", "note": "[FXII618]", "values": [{"measurement": "IC50", "setting": "[1]; [4]", "value": "18.4 nM and 23.5 nM and 23.3 nM and 27.9 nM"}, {"measurement": "Residual activity of human FXIIa", "setting": "[1]; inhibitor 0.488281 nM, 0.000488281 µM", "value": "96.6624% and 92.9553%"}, {"measurement": "remaining activity at 0.000488281 µM", "setting": "[1]; inhibitor 0.488281 nM, read-out: Residual activity of human FXIIa", "value": 98.6, "unit": "%"}, {"measurement": "Residual activity of human FXIIa", "setting": "[1]; inhibitor 1.95312 nM, 0.00195312 µM", "value": "84.5129% and 82.3772%"}, {"measurement": "remaining activity at 0.00195312 µM", "setting": "[1]; inhibitor 1.95312 nM, read-out: Residual activity of human FXIIa", "value": 85.8, "unit": "%"}, {"measurement": "Residual activity of human FXIIa", "setting": "[1]; inhibitor 3.90625 nM, 0.00390625 µM", "value": "70.1534% and 69.6521%"}, {"measurement": "remaining activity at 0.00390625 µM", "setting": "[1]; inhibitor 3.90625 nM, read-out: Residual activity of human FXIIa", "value": 75.7, "unit": "%"}, {"measurement": "Residual activity of human FXIIa", "setting": "[1]; inhibitor 7.8125 nM, 0.0078125 µM", "value": "55.0198% and 53.6523%"}, {"measurement": "remaining activity at 0.0078125 µM", "setting": "[1]; inhibitor 7.8125 nM, read-out: Residual activity of human FXIIa", "value": 59.1, "unit": "%"}, {"measurement": "Residual activity of human FXIIa", "setting": "[1]; inhibitor 15.625 nM, 0.015625 µM", "value": "36.7931% and 38.5109%"}, {"measurement": "remaining activity at 0.015625 µM", "setting": "[1]; inhibitor 15.625 nM, read-out: Residual activity of human FXIIa", "value": 39.2, "unit": "%"}, {"measurement": "Residual activity of human FXIIa", "setting": "[1]; inhibitor 31.25 nM, 0.03125 µM", "value": "21.9721% and 22.4384%"}, {"measurement": "remaining activity at 0.03125 µM", "setting": "[1]; inhibitor 31.25 nM, read-out: Residual activity of human FXIIa", "value": 24.9, "unit": "%"}, {"measurement": "Residual activity of human FXIIa", "setting": "[1]; inhibitor 62.5 nM, 0.0625 µM", "value": "12.1968% and 13.3118%"}, {"measurement": "remaining activity at 0.0625 µM", "setting": "[1]; inhibitor 62.5 nM, read-out: Residual activity of human FXIIa", "value": 14, "unit": "%"}, {"measurement": "Residual activity of human FXIIa", "setting": "[1]; inhibitor 125 nM, 0.125 µM", "value": "6.613% and 11.4379%"}, {"measurement": "remaining activity at 0.125 µM", "setting": "[1]; inhibitor 125 nM, read-out: Residual activity of human FXIIa", "value": 7.65, "unit": "%"}, {"measurement": "remaining activity at […]", "setting": "[1]; inhibitor 250 nM, read-out: Residual activity of human FXIIa", "value": 3.83, "unit": "%"}, {"measurement": "Residual activity of human FXIIa", "setting": "[1]; inhibitor 500 nM, 0.5 µM", "value": "2.542% and 2.502%"}, {"measurement": "remaining activity at 0.5 µM", "setting": "[1]; inhibitor 500 nM, read-out: Residual activity of human FXIIa", "value": 2.52, "unit": "%"}, {"measurement": "Residual activity of human FXIIa", "setting": "[1]; inhibitor 0.976562 / 0.976563 nM, 0.000976563 µM", "value": "92.5507% and 90.2369%"}, {"measurement": "remaining activity at 0.000976563 µM", "setting": "[1]; inhibitor 0.976562 / 0.976563 nM, read-out: Residual activity of human FXIIa", "value": 96.2, "unit": "%"}, {"measurement": "Ki", "setting": "[1]; purified peptide without coumarin label, read-out: Ki human FXIIa", "value": "8.1 ± 0.7", "unit": "nM"}, {"measurement": "IC50", "setting": "[2]; [4]", "value": "290 nM and 312 nM and 236 nM and 289 nM and 257 nM and 228 nM and 245 nM and 286 nM and 358 nM"}, {"measurement": "Ki", "setting": "[2]; purified peptide without coumarin label, read-out: Ki mouse FXIIa", "value": "86 ± 9", "unit": "nM"}, {"measurement": "remaining activity at 0.000390625 µM", "setting": "[3]; peptide 0.390625 nM", "value": 97.5, "unit": "%"}, {"measurement": "remaining activity at 0.00078125 µM", "setting": "[3]; peptide 0.78125 nM", "value": 99, "unit": "%"}, {"measurement": "remaining activity at 0.0015625 µM", "setting": "[3]; peptide 1.5625 nM", "value": 99.1, "unit": "%"}, {"measurement": "remaining activity at 0.003125 µM", "setting": "[3]; peptide 3.125 nM", "value": 96.3, "unit": "%"}, {"measurement": "remaining activity at 0.00625 µM", "setting": "[3]; peptide 6.25 nM", "value": 94, "unit": "%"}, {"measurement": "remaining activity at 0.0125 µM", "setting": "[3]; peptide 12.5 nM", "value": 90.3, "unit": "%"}, {"measurement": "remaining activity at […]", "setting": "[3]; peptide 25 nM", "value": 81.9, "unit": "%"}, {"measurement": "remaining activity at 0.05 µM", "setting": "[3]; peptide 50 nM", "value": 69.1, "unit": "%"}, {"measurement": "remaining activity at 0.1 µM", "setting": "[3]; peptide 100 nM", "value": 53, "unit": "%"}, {"measurement": "remaining activity at 0.2 µM", "setting": "[3]; peptide 200 nM", "value": 35.9, "unit": "%"}, {"measurement": "remaining activity at 0.4 µM", "setting": "[3]; peptide 400 nM", "value": 22.6, "unit": "%"}]}
